The METLIN SMRT retention time set (Domingo-Almenara et al. 2019)

Assay: gradient 5% acetonitrile 3 min, to 50% in 2 min, to 85% in 15 min, held 3 min, 100 µL/min
Details: column: Zorbax Extend-C18 2.1 x 50 mm; eluents: water / acetonitrile, 0.1% formic acid
Method in brief: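 Retention times of pure standards were taken from adduct peaks that were selected by computer and manually inspected. Over 3 months, mixtures of ~100 molecules were run by HPLC–quadrupole time-of-flight mass spectrometry in positive and negative ionization mode. The Zorbax Extend-C18 column (2.1 × 50 mm, 1.8 μm) ran at 100 μL/min in water and acetonitrile, each containing 0.1% formic acid, with 40 μL dead volume and 900 μL dwell volume.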

Compared with `Cc1c(NC(=O)Nc2c(Cl)cccc2Cl)c(=O)n(-c2ccccc2)n1C`, `COc1ccccc1NC(=O)Nc1c(C)nc2ccc(C)cn2c1=O` is lower in RP-LC retention time: 751 s for the first, 616 s for the second.

Compared with `Cc1csc(-c2cc(S(=O)(=O)NCCC(C)C)cn2CC(=O)N2CCCCC2)n1`, `Cc1nnc(-c2ccc3ccn(CC(=O)N4CCCCC4)c3c2)o1` is lower in RP-LC retention time: 1010 s for the first, 748 s for the second.

Compared with `O=C(NCc1cccnc1)N(c1ccccc1)c1ccccc1`, `O=C(NCCc1ccco1)c1ccc2nc(CCc3ccccc3)oc2c1` is higher in RP-LC retention time: 578 s for the first, 930 s for the second.

Compared with `CCN1CCN(C(=O)c2sc(-c3cn(C(C)C)c4ncccc34)nc2C)CC1`, `Cn1c(C(=O)N2CCN(c3ccccn3)CC2)c(N2CCCC2=O)c2cc(F)ccc21` is higher in RP-LC retention time: 612 s for the first, 635 s for the second.

Going from `O=S(=O)(c1ccc(Br)s1)N1CCc2nc(-c3ccccc3)ncc2C1` to `Cc1ccc(-c2nnc(-c3nn(C)c4c3CN(S(=O)(=O)c3ccc(Cl)s3)CC4)o2)cc1`, the RP-LC retention time falls from 1160 s to 1060 s.

Going from `CCOc1ccc(S(=O)(=O)N(CC(=O)N2CCNCC2)C(C)C)cc1` to `COc1ccc(CNC(=O)c2cn(C)nc2S(=O)(=O)N2CCC(C)CC2)cc1`, the RP-LC retention time rises from 625 s to 904 s.

First: COc1ccc(OC)c(NC(=O)C2CCCN2S(=O)(=O)c2cc3c(cc2C)NC(=O)C(C)O3)c1 (centres undefined)
Second: COc1ccc(-c2cn3c(CC(=O)Nc4cc(OC)ccc4OC)csc3n2)cc1
The RP-LC retention time of the first is higher: 830 s for the first, 780 s for the second.

Compared with `CCn1cc(S(=O)(=O)Nc2cccc(C#N)c2)c2cccnc21`, `COc1ccc2nc(-c3ccc(NS(=O)(=O)c4ccccc4C(F)(F)F)cc3)cn2n1` is higher in RP-LC retention time: 781 s for the first, 792 s for the second.

First: CCC(C)NC(=O)c1cc(C)[nH]n1 (centres undefined)
Second: C=CCNC(=O)Nc1nc(CSC)cs1
The RP-LC retention time of the first is lower: 623 s for the first, 653 s for the second.

Compared with `COc1ccc(C)cc1NC(=O)Nc1c(-c2ccc(C)cc2)nc2ccccn12`, `Cc1ccc(N2CCC(NC(=O)Nc3ccc(C)cc3C)C2=O)cc1` (centres undefined) is higher in RP-LC retention time: 722 s for the first, 875 s for the second.

Going from `CCOc1c(C(=O)OC)sc2ccc(NC(=O)c3[nH]nc4c3CCc3ccccc3-4)cc12` to `CCN1C(=O)COc2ccc(-c3nc(NC(=O)c4cccc(C)c4)sc3C)cc21`, the RP-LC retention time falls from 1140 s to 682 s.

Going from `O=C(NC1CC1)c1nc(-c2ccncc2)cs1` to `O=C(NC1CCCc2c1[nH]c1ccc(Cl)cc21)c1ccncc1` (centres undefined), the RP-LC retention time rises from 574 s to 859 s.

Compared with `Cn1ccc2cc(S(=O)(=O)N3CCCC(C(=O)NC4CCCCCC4)C3)ccc21` (centres undefined), `CC(=O)N1c2ccc(S(=O)(=O)N3CCCC3)cc2CC1C(=O)NCCCN1CCCCCC1` (centres undefined) is lower in RP-LC retention time: 1010 s for the first, 619 s for the second.

Compared with `O=S(=O)(Cc1ccccc1Cl)N(Cc1ccsc1)C1CC1`, `CCn1c(=O)sc2cc(S(=O)(=O)N3CCC(C(=O)NCC(C)c4ccccc4)CC3)ccc21` (centres undefined) is lower in RP-LC retention time: 1000 s for the first, 929 s for the second.

First: Cc1nc(-c2csc(S(=O)(=O)N3CCCC(C(=O)Nc4ccc(F)c(F)c4)C3)c2)no1 (centres undefined)
Second: Cc1nc(C2(C)CCN(S(=O)(=O)c3ccc(Cl)cc3C)CC2)no1
The RP-LC retention time of the first is lower: 1020 s for the first, 1040 s for the second.

Going from `NC(=O)C1CCN(C(=O)CSc2nnnn2-c2ccccc2)CC1` to `CC1CCN(C(=O)C2CC(=O)N(c3ccccc3)C2)CC1` (centres undefined), the RP-LC retention time rises from 621 s to 764 s.

Compared with `Cc1nc(N2CCN(c3ncccn3)CC2)nc2c1C(=O)CC(c1ccc(F)cc1)C2` (centres undefined), `CN1C(=O)c2cc(C(=O)N3CCN(c4ncccn4)CC3)nn2CC1(C)C(=O)NC1CCCCC1` (centres undefined) is lower in RP-LC retention time: 1190 s for the first, 702 s for the second.

Compared with `O=C(Nc1ccc(N2CCOCC2)cc1)C1CCCN(c2ccnc(-c3ccc(F)cc3)n2)C1` (centres undefined), `COc1ccc(N2CCN(C(=O)C3CCN(CCc4c[nH]c5ncccc45)CC3)CC2)cc1` is lower in RP-LC retention time: 649 s for the first, 567 s for the second.

Compared with `COc1ccc(-c2ccc(=O)n(Cc3nc(-c4cccc(Cl)c4)no3)n2)cc1`, `CCOc1ccc(-c2ccc(=O)n(Cc3nc(-c4ccc(OC(C)C)cc4)no3)n2)cc1` is lower in RP-LC retention time: 1080 s for the first, 826 s for the second.

Compared with `Cc1ccc(-n2ncc3c(=O)n(Cc4nc(-c5ccc(Cl)cc5)no4)cnc32)cc1`, `Cc1ccc(-c2noc(CN3C(=O)COc4ccccc43)n2)cc1C` is lower in RP-LC retention time: 1160 s for the first, 1110 s for the second.

Going from `Cc1cc(OCC(=O)NCc2ccco2)nc(-c2ccc(Cl)cc2)n1` to `CCOC(=O)c1nc(Nc2ccc(Cl)cc2)c2ccccc2n1`, the RP-LC retention time falls from 1000 s to 957 s.

Going from `COCCc1noc(-c2ccc(=O)n(CC(=O)Nc3cc(F)ccc3F)c2)n1` to `O=C(CSc1nnc2c3cc(-c4ccc(F)cc4)nn3ccn12)Nc1ccc(F)cc1F`, the RP-LC retention time rises from 728 s to 891 s.

Going from `C=CCNC(=O)C1COc2ccccc2O1` (centres undefined) to `CC(C)c1ccccc1NC(=O)C1CCN(S(C)(=O)=O)c2ccccc2O1` (centres undefined), the RP-LC retention time rises from 630 s to 945 s.

Compared with `CCOC(=O)c1ccccc1NC(=O)CSc1ccc(-c2ccccn2)nn1`, `Cc1cnn(Cc2nc(-c3ccc(NC(=O)COc4ccccc4)cc3)oc2C)c1` is lower in RP-LC retention time: 906 s for the first, 869 s for the second.

Going from `CC(C)C(=O)Nc1ccc(CCc2nc3ccc(C(=O)NCCC4=CCCCC4)cc3[nH]2)cc1` to `CCOCCCNC(=O)Nc1ccc2nc3n(c(=O)c2c1)CCCC3`, the RP-LC retention time falls from 731 s to 563 s.

Going from `Cc1ccc2c(c1)cc(S(=O)(=O)c1ccccc1)c(=O)n2CC(=O)NC1CCCC1` to `Cc1ccc(NC(=O)CN2C(=O)CCCc3cc(S(=O)(=O)N4CCCC4)ccc32)c(C)c1`, the RP-LC retention time falls from 903 s to 852 s.

Compared with `CCC(CN1CCOCC1)NC(=O)C1CCN(c2ccc(-c3cccs3)nn2)CC1` (centres undefined), `CN1CCN(CCNC(=O)C2CCN(c3nc4cccnc4s3)CC2)CC1` is lower in RP-LC retention time: 571 s for the first, 555 s for the second.

`CCCNC(=O)N1CCCC(C)(C(=O)NCc2ccc(C)cc2)C1` (centres undefined) and `Cc1ccccc1CNC(=O)Cn1nc(C(=O)N2CCCC2)c2ccccc21` are the same in RP-LC retention time: 799 s for the first, 799 s for the second.

Going from `C=Cc1ccc(CN2C(=O)N(c3cccc(F)c3)c3ncccc3S2(=O)=O)cc1` to `Cn1c(=O)c2cc(C(=O)Nc3ccc(F)cc3)cnc2n(-c2ccccc2)c1=O`, the RP-LC retention time rises from 834 s to 868 s.

Compared with `C=CCN1C(=O)COc2ccc(-c3csc(NC(=O)CCC)n3)cc21`, `C=CCN1C(=O)COc2ccc(-c3nc(NC(=O)C(CC)CC)sc3C)cc21` is higher in RP-LC retention time: 894 s for the first, 1050 s for the second.

Compared with `CCOc1ccc(NC(=O)N2CCCC(Cn3cnc4cccnc43)C2)cc1` (centres undefined), `CCCOc1ccc(CNC(=O)C2CCN(c3ncnc4c3oc3ccccc34)CC2)cc1` is higher in RP-LC retention time: 640 s for the first, 841 s for the second.

Compared with `COC(=O)C1=CN(c2cccc(Br)c2)c2cc(F)ccc2S1(=O)=O`, `CNC(=O)c1c(-c2ccc(F)cc2)oc2cc(N(CCO)S(C)(=O)=O)c(C3CC3)cc12` is lower in RP-LC retention time: 903 s for the first, 838 s for the second.

First: Cc1cc(C)cc(NC(=O)C2CCc3sc(C(=O)N4CCOCC4)cc3C2)c1 (centres undefined)
Second: CCOC(=O)C1CCCN(Cc2nc3nc(C)cc(N4CCOCC4)n3n2)C1 (centres undefined)
The RP-LC retention time of the first is higher: 856 s for the first, 576 s for the second.

First: CCCNC(=O)N(C1CCOCC1)C1CCN(S(=O)(=O)c2ccccc2CC)CC1
Second: Cc1[nH]c(C)c(S(=O)(=O)N2CCN(c3ccccn3)CC2)c1C(=O)N1CCCCC1
The RP-LC retention time of the first is higher: 899 s for the first, 606 s for the second.

Going from `O=c1c2cc(-c3ccc(F)cc3)nn2ccn1Cc1noc(CN2CCCCC2)n1` to `CCc1nccn1Cc1nc(-c2ccc3c(c2)OCO3)no1`, the RP-LC retention time falls from 656 s to 621 s.

First: CCNc1cc(N2CCC(CCC(=O)N3CCN(C(C)=O)CC3)CC2)ncn1
Second: CC1CCCN(C(=O)c2csc(-c3ccc(N4CCCC4)nc3)n2)C1 (centres undefined)
The RP-LC retention time of the first is lower: 562 s for the first, 660 s for the second.

First: CS(=O)(=O)c1nc2ccc(NS(=O)(=O)c3ccc4c(c3)CCC4)cc2s1
Second: CCc1ccc(Nc2cc(C(=O)N3CCCCC3)nc3cc(OC)c(OC)cc23)cc1
The RP-LC retention time of the first is higher: 987 s for the first, 766 s for the second.

Compared with `CCCCOc1ccc(CNC(=O)C2CCN(Cc3cn(C)c4ccc(OC)cc34)CC2)cc1`, `O=C(Cn1cccc1-c1nnc(C2CCC2)o1)NCc1ccc2c(c1)OCO2` is higher in RP-LC retention time: 804 s for the first, 836 s for the second.

Compared with `COc1ccc(N2CC(c3noc(-c4ccc(C)cc4C)n3)CC2=O)cc1OC` (centres undefined), `Cc1ccc(NC(=O)C2CC(=O)N(c3n[nH]c4cccc(F)c34)C2)cc1C` (centres undefined) is lower in RP-LC retention time: 1000 s for the first, 831 s for the second.

First: COc1cccc(-c2cc3n(n2)C(NC2CC2)CNC3=O)c1 (centres undefined)
Second: O=C(c1ccco1)N1CCC[C@H]1c1nc(-c2ccccc2)n[nH]1
The RP-LC retention time of the first is lower: 562 s for the first, 652 s for the second.

First: CC(C)(C)c1ccc(C(=O)Nc2ccc3c(c2)C(=O)NC3=O)cc1
Second: Cc1ccc(C2NC(=O)N(CC(=O)Nc3ccc4c(c3)OCO4)C3=C2C(=O)OC3)cc1 (centres undefined)
The RP-LC retention time of the first is higher: 853 s for the first, 746 s for the second.

Going from `CN(C)C[C@@H]1CN(c2ncccn2)C[C@H]1NC(=O)NCc1ccco1` to `CCCn1c(C)cnc1C1CN(C(=O)c2ccoc2)C1`, the RP-LC retention time rises from 550 s to 573 s.

Compared with `CCN(CC)C(=O)c1ccc2c(c1)N(CC(=O)NCCOC)C(=O)CO2`, `COc1ccccc1CC(=O)N1C[C@@H]2C[C@H]1C[C@@H]2NC(=O)c1ccccc1` is higher in RP-LC retention time: 624 s for the first, 729 s for the second.

Compared with `O=C1CN(C(=O)Cc2ccc(OC(F)(F)F)cc2)C2(CCCC2)CN1`, `O=C(C1c2ccccc2CCN1C(=O)C1CC1)N1CCN(c2ccccc2F)CC1` (centres undefined) is higher in RP-LC retention time: 790 s for the first, 947 s for the second.

For `O=C(Nc1ncn[nH]1)c1ccccc1`, the RP-LC retention time was 646 s.
